Data on 15 molecules can be found in ChEMBL document CHEMBL5241092, “The antibacterial activity of fluoroquinolone derivatives: An update (2018-2021)” (2021).

In assay [1] the test system is Staphylococcus aureus. The experiment in a line: Antibacterial activity against methicillin resistant Staphylococcus aureus 3. The class given is functional.
The subject of assay [2] is Staphylococcus aureus. Description: Antibacterial activity against methicillin resistant Staphylococcus aureus 2. It counts as functional.
The test system of assay [3] is Staphylococcus aureus. Description: Antibacterial activity against Staphylococcus aureus. The class given is functional.
The test system of assay [4] is Staphylococcus aureus. The experiment in a line: Antibacterial activity against methicillin resistant Staphylococcus aureus 1. The class given is functional.
The subject of assay [5] is Staphylococcus aureus. The experiment in a line: Antibacterial activity against methicillin resistant Staphylococcus aureus. It counts as functional.
The next assay deals with Salmonella enteritidis. The experiment in a line: Antibacterial activity against Salmonella enteritidis. The class given is functional, Salmonella enterica subsp. enterica serovar Enteritidis. To be noted: Salmonella enterica.
Assay [6] relates to Pseudomonas aeruginosa. The experiment in a line: Antibacterial activity against Pseudomonas aeruginosa. The class given is functional.
For assay [7], the system named is Escherichia coli. Description: Antibacterial activity against Escherichia coli. It counts as functional.
Assay [8] has as its system Staphylococcus aureus. Description: Antibacterial activity against methicillin resistant Staphylococcus aureus reference strain. It counts as functional.
The test system of assay [9] is Staphylococcus aureus. Description: Antibacterial activity against methicillin resistant Staphylococcus aureus clinical strain. It counts as functional.
The test system of assay [10] is Escherichia coli. The experiment in a line: Antibacterial activity against quinolone susceptible Escherichia coli. The class given is functional.
The test system of assay [11] is Pseudomonas aeruginosa. Description: Antibacterial activity against quinolone susceptible Pseudomonas aeruginosa. It counts as functional.
In assay [12] the test system is Staphylococcus aureus. The experiment in a line: Potency index, ratio of vancomycin MIC to test compound MIC for antibacterial activity against methicillin resistant Staphylococcus aureus 3. The class given is functional.
In assay [13] the test system is Staphylococcus aureus. The experiment in a line: Potency index, ratio of vancomycin MIC to test compound MIC for antibacterial activity against methicillin resistant Staphylococcus aureus 2. It counts as functional.
Assay [14] relates to Staphylococcus aureus. The experiment in a line: Potency index, ratio of vancomycin MIC to test compound MIC for antibacterial activity against methicillin resistant Staphylococcus aureus 1. The class given is functional.
In assay [15] the test system is Staphylococcus aureus. The experiment in a line: Antibacterial activity against fluoroquinolone sensitive Staphylococcus aureus. It counts as functional.
Assay [16] relates to Staphylococcus aureus. Description: Potency index, ratio of levofloxacin MIC to test compound MIC for antibacterial activity against fluoroquinolone/methicillin resistant Staphylococcus aureus. It counts as functional.
The subject of another assay is Clostridioides difficile. The experiment in a line: Antibacterial activity against Clostridioides difficile. It counts as functional.
Assay [17] deals with Staphylococcus aureus. Description: Antibacterial activity against fluoroquinolone/methicillin resistant Staphylococcus aureus. The class given is functional.
Assay [18] concerns Acinetobacter baumannii. Description: Antibacterial activity against quinolone resistant Acinetobacter baumannii. It counts as functional.
Assay [19] has as its system Escherichia coli. Description: Antibacterial activity against quinolone resistant Escherichia coli. It counts as functional.
In assay [20] the test system is Pseudomonas aeruginosa. The experiment in a line: Potency index, ratio of levofloxacin MIC to test compound MIC for quinolone resistant Pseudomonas aeruginosa. The class given is functional.
For assay [21], the system named is Acinetobacter baumannii. The experiment in a line: Potency index, ratio of levofloxacin MIC to test compound MIC for quinolone resistant Acinetobacter baumannii. The class given is functional.
The subject of assay [22] is Escherichia coli. The experiment in a line: Potency index, ratio of levofloxacin MIC to test compound MIC for quinolone resistant Escherichia coli. It counts as functional.
Assay [23] relates to Pseudomonas aeruginosa. The experiment in a line: Antibacterial activity against quinolone resistant Pseudomonas aeruginosa. The class given is functional.

Broadly, the MIC is the lowest concentration found to suppress growth. Higher therefore signals a need for much substance. The term MIC50 denotes an inhibitory concentration at the 50% level, which refers to growth in some studies and to a panel of isolates in others. The term MIC90 denotes an inhibitory concentration at the 90% level, which refers to growth in some studies and to a panel of isolates in others. High values mean weaker potency, low ones greater potency.

Converted amounts (≈) assume the structure as drawn.

As to `CCn1cc(C(=O)O)c(=O)c2cc(F)c(N3CCN(Cc4nnc(-c5ccccc5Cl)o4)CC3)cc21`, the MIC in the assay on Staphylococcus aureus [1], against Staphylococcus aureus [2], in the assay with Staphylococcus aureus [3] and in the assay on Staphylococcus aureus [4] was 0.25 µg/mL (≈ 0.488 µM) throughout.

Turning to `O=C(O)c1cn(-c2ccc(F)cc2)c2cc(N3CCN(Cc4nc5ccc(Cl)cc5c(=O)[nH]4)CC3)c(F)cc2c1=O`, the minimal inhibitory concentration (MIC) with Staphylococcus aureus [3] and with Staphylococcus aureus [5] was 0.125 µg/mL (≈ 0.216 µM) throughout.

With `CCn1cc(C(=O)O)c(=O)c2cc(F)c(N3CCN(C(=O)CN4C(=O)S/C(=C\c5ccccc5)C4=O)CC3)cc21`, the MIC in the assay on Salmonella enteritidis, in the assay on Pseudomonas aeruginosa [6] and against Escherichia coli [7] was 0.5 µg/mL (≈ 0.886 µM) each time.

Turning to `CCn1cc(C(=O)O)c(=O)c2cc(F)c(N3CCN(C(=O)CN4C(=O)S/C(=C\c5ccc(OC)cc5)C4=O)CC3)cc21`, the MIC in the assay on Salmonella enteritidis, against Pseudomonas aeruginosa [6] and with Escherichia coli [7] was 0.25 µg/mL (≈ 0.42 µM) each time.

As to `CCn1cc(C(=O)O)c(=O)c2cc(F)c(N3CCN(Cc4nnc(-c5ccc(OC)cc5)o4)CC3)cc21`, the MIC against Staphylococcus aureus [1], in the assay on Staphylococcus aureus [2], against Staphylococcus aureus [3] and against Staphylococcus aureus [4] was 0.25 µg/mL (≈ 0.493 µM) each time.

For `O=C(O)c1cn(C2CC2)c2cc(N3CCN(Cc4cc5ccccc5cc4O)CC3)c(F)cc2c1=O`, the figures for the MIC with Staphylococcus aureus [8] and in the assay on Staphylococcus aureus [9] were 0.08 µg/mL (≈ 0.164 µM) and 0.2 µg/mL (≈ 0.41 µM), respectively.

With `CNC1CN(c2c(F)cc3c(=O)c(C(=O)O)cn(-c4cc(N)c(F)cc4CO)c3c2Cl)C1`, the MIC against Escherichia coli [10] and in the assay on Pseudomonas aeruginosa [11] was 0.008 µg/mL (≈ 0.0172 µM) each time.

With `COc1c(N2CCN(C(=O)Cn3cc(CN4C(=O)C(=O)c5cc(F)ccc54)nn3)C(C)C2)c(F)cc2c(=O)c(C(=O)O)cn(C3CC3)c12` (configuration not stated), the MIC against Staphylococcus aureus [1], against Staphylococcus aureus [2], with Staphylococcus aureus [3] and in the assay on Staphylococcus aureus [4] was ≤ 0.03 µg/mL each time.

Regarding `CCn1cc(C(=O)O)c(=O)c2cc(F)c(N3CCN(Cc4nnc(-c5cccc(OC)c5)o4)CC3)cc21`, the Ratio with Staphylococcus aureus [12], in the assay with Staphylococcus aureus [13] and in the assay with Staphylococcus aureus [14] was 2 throughout. For the same molecule, the minimal inhibitory concentration (MIC) in the assay on Staphylococcus aureus [1] stood at 1 µg/mL (≈ 1.97 µM); against Staphylococcus aureus [2], 0.5 µg/mL (≈ 0.985 µM); in the assay on Staphylococcus aureus [3], 2 µg/mL (≈ 3.94 µM); in the assay on Staphylococcus aureus [4] it was 0.5 µg/mL (≈ 0.985 µM).

Turning to `C[C@H]1COc2c(N3C4CCC3CC(O)C4)c(F)cc3c(=O)c(C(=O)O)cn1c23` (some centres not stated), in the assay with Staphylococcus aureus [15], the MIC is ≤ 0.5 µg/mL. In addition, the Ratio with Staphylococcus aureus [16] stood at 4.

In the assay on Clostridioides difficile, `Cc1c(-c2cnc(N)c(C#N)c2)c(F)cc2c(=O)c(C(=O)O)cn(C3CC3)c12` showed an MIC50 of 0.125 µg/mL (≈ 0.33 µM) and an MIC90 of 0.5 µg/mL (≈ 1.32 µM).

As for `C[C@H]1COc2c(N3C4CCC3CC(OC(=O)CCl)C4)c(F)cc3c(=O)c(C(=O)O)cn1c23` (some centres not stated), the minimum inhibitory concentration (MIC) with Staphylococcus aureus [15] and in the assay with Staphylococcus aureus [17] was ≤ 0.5 µg/mL in each case. The Ratio in the assay with Staphylococcus aureus [16] amounted to 4.

Turning to `CNC1CN(c2c(F)c(C)c3c(=O)c(C(=O)O)cn(-c4cc(N)c(F)cc4CO)c3c2Cl)C1`, the MIC in the assay with Acinetobacter baumannii [18] worked out at 0.12 µg/mL (≈ 0.251 µM); against Escherichia coli [10], 0.008 µg/mL (≈ 0.0167 µM); against Escherichia coli [19], 0.12 µg/mL (≈ 0.251 µM); in the assay on Pseudomonas aeruginosa [11] it was 0.008 µg/mL (≈ 0.0167 µM); in the assay with Pseudomonas aeruginosa [23], 0.12 µg/mL (≈ 0.251 µM). Besides, the Ratio with Pseudomonas aeruginosa [20], in the assay with Acinetobacter baumannii [21] and in the assay with Escherichia coli [22] was 2 in each case.

Consider `CCn1cc(C(=O)O)c(=O)c2cc(F)c(N3CCN(C(=O)CN4C(=O)S/C(=C\c5ccc(Cl)cc5Cl)C4=O)CC3)cc21`, for which the MIC against Salmonella enteritidis, in the assay with Pseudomonas aeruginosa [6] and in the assay with Escherichia coli [7] was 0.25 µg/mL (≈ 0.395 µM) throughout.

`CCn1cc(C(=O)O)c(=O)c2cc(F)c(N3CCN(C(=O)CN4C(=O)S/C(=C\c5ccc(F)cc5)C4=O)CC3)cc21`: the MIC against Salmonella enteritidis, against Pseudomonas aeruginosa [6] and in the assay with Escherichia coli [7] was 0.25 µg/mL (≈ 0.429 µM) in each case.
